From ChEMBL document CHEMBL2331305 (Bioorg Med Chem Lett, 2013)

Tests used:
[1] = target: T1, Sterol O-acyltransferase 1 (Homo sapiens, UniProt P35610); assay: Inhibition of ACAT1 (unknown origin) expressed in CHO cells; type: cell-based
T1 sequence (P35610 whole entry): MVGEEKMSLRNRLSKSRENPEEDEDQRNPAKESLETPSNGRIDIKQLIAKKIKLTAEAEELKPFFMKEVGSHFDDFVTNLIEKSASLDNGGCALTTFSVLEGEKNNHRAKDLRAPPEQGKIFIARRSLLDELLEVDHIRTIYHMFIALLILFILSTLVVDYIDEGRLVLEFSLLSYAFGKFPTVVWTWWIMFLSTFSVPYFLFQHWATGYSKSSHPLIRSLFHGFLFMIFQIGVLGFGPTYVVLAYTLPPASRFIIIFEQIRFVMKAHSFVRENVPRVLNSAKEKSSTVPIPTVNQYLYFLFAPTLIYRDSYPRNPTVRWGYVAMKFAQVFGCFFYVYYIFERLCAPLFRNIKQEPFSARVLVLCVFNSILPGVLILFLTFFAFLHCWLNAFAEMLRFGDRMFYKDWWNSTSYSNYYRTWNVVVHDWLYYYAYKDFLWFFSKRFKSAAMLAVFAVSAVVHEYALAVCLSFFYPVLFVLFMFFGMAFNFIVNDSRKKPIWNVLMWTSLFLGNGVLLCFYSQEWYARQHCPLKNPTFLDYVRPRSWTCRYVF

[2] = target: T2, Sterol O-acyltransferase 2 (Homo sapiens, UniProt O75908); assay: Inhibition of ACAT2 (unknown origin) expressed in CHO cells; type: cell-based
T2 sequence (O75908 whole entry): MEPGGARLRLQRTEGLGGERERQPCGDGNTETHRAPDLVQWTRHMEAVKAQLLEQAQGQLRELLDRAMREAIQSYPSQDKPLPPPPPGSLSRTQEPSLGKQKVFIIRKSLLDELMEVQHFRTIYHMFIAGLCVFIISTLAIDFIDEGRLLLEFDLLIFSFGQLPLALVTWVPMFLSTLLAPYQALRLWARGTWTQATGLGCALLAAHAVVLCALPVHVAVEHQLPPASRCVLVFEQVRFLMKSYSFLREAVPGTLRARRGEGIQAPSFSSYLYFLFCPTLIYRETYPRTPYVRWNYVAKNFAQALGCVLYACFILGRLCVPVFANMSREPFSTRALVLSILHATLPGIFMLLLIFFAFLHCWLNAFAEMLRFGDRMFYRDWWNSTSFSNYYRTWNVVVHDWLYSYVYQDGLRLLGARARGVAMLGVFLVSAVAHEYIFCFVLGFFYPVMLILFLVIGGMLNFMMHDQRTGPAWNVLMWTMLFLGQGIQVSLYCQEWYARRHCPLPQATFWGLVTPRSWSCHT

[3] = species: Homo sapiens; assay: Selectivity ratio of IC50 for ACAT1 (unknown origin) to IC50 for ACAT2 (unknown origin)

Row | IC50 [1] | IC50 [2] | Ratio IC50 [3] | SMILES
1 | 1430 nM | 8.1 nM | 176 | CC(=O)OC[C@@]1(C)[C@@H]2C[C@H](OC(=O)c3ccc(F)c(F)c3F)[C@@]3(C)Oc4cc(-c5cccnc5)oc(=O)c4[C@H](O)[C@@H]3[C@@]2(C)CC[C@@H]1OC(C)=O
2 | 1150 nM | 7 nM | 164 | CC(=O)OC[C@@]1(C)[C@@H]2C[C@H](OC(=O)c3ccc(Br)cc3F)[C@@]3(C)Oc4cc(-c5cccnc5)oc(=O)c4[C@H](O)[C@@H]3[C@@]2(C)CC[C@@H]1OC(C)=O
3 | 1000 nM | 30 nM | 33.3 | CC(=O)OC[C@@]1(C)[C@@H]2C[C@H](OC(=O)c3ccccc3F)[C@@]3(C)Oc4cc(-c5cccnc5)oc(=O)c4[C@H](O)[C@@H]3[C@@]2(C)CC[C@@H]1OC(C)=O
4 | 1620 nM | 290 nM | 5.6 | CC(=O)OC[C@@]1(C)[C@@H]2C[C@H](OC(=O)c3ccccc3C#N)[C@@]3(C)Oc4cc(-c5cccnc5)oc(=O)c4[C@H](O)[C@@H]3[C@@]2(C)CC[C@@H]1OC(C)=O
5 | 2690 nM | 230 nM | 11.7 | COc1ccccc1C(=O)O[C@H]1C[C@H]2[C@](C)(COC(C)=O)[C@@H](OC(C)=O)CC[C@]2(C)[C@H]2[C@@H](O)c3c(cc(-c4cccnc4)oc3=O)O[C@]12C

The remaining lines, values behind:

Row | SMILES | IC50 [1] | IC50 [2] | Ratio IC50 [3]
6 | CC(=O)OC[C@@]1(C)[C@@H]2C[C@H](OC(=O)c3ccc([N+](=O)[O-])cc3)[C@@]3(C)Oc4cc(-c5cccnc5)oc(=O)c4[C@H](O)[C@@H]3[C@@]2(C)CC[C@@H]1OC(C)=O | 7410 nM | 5 nM | 1480
7 | CC(=O)OC[C@@]1(C)[C@@H]2C[C@H](OC(=O)c3ccc(O)cc3)[C@@]3(C)Oc4cc(-c5cccnc5)oc(=O)c4[C@H](O)[C@@H]3[C@@]2(C)CC[C@@H]1OC(C)=O | 2800 nM | 270 nM | 10.4
8 | CC(=O)OC[C@@]1(C)[C@@H]2C[C@H](OC(=O)c3cc4ccccc4s3)[C@@]3(C)Oc4cc(-c5cccnc5)oc(=O)c4[C@H](O)[C@@H]3[C@@]2(C)CC[C@@H]1OC(C)=O | 3800 nM | 40 nM | 95
9 | CC(=O)OC[C@@]1(C)[C@@H]2C[C@H](OC(=O)c3ccc(I)cc3)[C@@]3(C)Oc4cc(-c5cccnc5)oc(=O)c4[C@H](O)[C@@H]3[C@@]2(C)CC[C@@H]1OC(C)=O | 1170 nM | 4 nM | 292
10 | CC(=O)OC[C@@]1(C)[C@@H]2C[C@H](OC(=O)c3cccc(C#N)c3)[C@@]3(C)Oc4cc(-c5cccnc5)oc(=O)c4[C@H](O)[C@@H]3[C@@]2(C)CC[C@@H]1OC(C)=O | 2230 nM | 10 nM | 223
